Source: article PMC4715937 (Cancer research, 2016)

Key:
Assay type in all cases: cell-based, human
Heme oxygenase-1 (HMOX1) = assay: HMOX1 quantitative PCR and ELISA in DLBCL cells; settings: Ly19 cells, inhibitor at 4μM, 24 hours
Ly19 cells = assay: MTS assay of Ly19 cells with pro-oxidant and NF-κB inhibitor; settings: 3 days; PS-1145 4 μM, pyocyanin 350 μM, single agents
TMD8 cells = assay: MTS cell proliferation assay, TMD8 cells; settings: antibody alone, 48 hours

Compound | HMOX1 induction in the presence of pyocyanin (Heme oxygenase-1 (HMOX1)) | Ly19 growth (Ly19 cells) | cell growth of TMD8 (TMD8 cells)
O=C(Nc1cc(Cl)cc2c1[nH]c1cnccc12)c1cccnc1 [PS-1145] | reduced HMOX1 induction | no effect on Ly19 growth | –
ADALIMUMAB | – | – | inhibited cell growth
Cn1c2cccc(=O)c-2nc2ccccc21 [pyocyanin] | – | strongly inhibited lymphoma cell growth | –
